Where two headings read alike, the source gives them in different places.
How the values were obtained:
[1] = target: T1, cystine/glutamate transporter (Mus musculus, UniProt Q9WTR6); assay: cell-based
T1 sequence (Q9WTR6 1-502): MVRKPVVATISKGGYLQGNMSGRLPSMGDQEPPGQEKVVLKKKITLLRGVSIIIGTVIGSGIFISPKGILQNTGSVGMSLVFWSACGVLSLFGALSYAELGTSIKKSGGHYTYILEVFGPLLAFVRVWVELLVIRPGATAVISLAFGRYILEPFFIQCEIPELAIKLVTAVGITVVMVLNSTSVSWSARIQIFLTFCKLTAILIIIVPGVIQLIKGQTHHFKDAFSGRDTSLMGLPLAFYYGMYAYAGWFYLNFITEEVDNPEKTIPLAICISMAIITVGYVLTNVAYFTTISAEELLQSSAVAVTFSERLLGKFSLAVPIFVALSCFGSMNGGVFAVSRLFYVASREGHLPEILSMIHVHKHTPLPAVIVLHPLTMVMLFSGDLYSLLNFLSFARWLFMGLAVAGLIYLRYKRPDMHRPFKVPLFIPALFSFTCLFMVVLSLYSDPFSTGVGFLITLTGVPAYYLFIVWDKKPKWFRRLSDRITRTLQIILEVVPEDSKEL
T1 sequence (P10852 1-526 partner): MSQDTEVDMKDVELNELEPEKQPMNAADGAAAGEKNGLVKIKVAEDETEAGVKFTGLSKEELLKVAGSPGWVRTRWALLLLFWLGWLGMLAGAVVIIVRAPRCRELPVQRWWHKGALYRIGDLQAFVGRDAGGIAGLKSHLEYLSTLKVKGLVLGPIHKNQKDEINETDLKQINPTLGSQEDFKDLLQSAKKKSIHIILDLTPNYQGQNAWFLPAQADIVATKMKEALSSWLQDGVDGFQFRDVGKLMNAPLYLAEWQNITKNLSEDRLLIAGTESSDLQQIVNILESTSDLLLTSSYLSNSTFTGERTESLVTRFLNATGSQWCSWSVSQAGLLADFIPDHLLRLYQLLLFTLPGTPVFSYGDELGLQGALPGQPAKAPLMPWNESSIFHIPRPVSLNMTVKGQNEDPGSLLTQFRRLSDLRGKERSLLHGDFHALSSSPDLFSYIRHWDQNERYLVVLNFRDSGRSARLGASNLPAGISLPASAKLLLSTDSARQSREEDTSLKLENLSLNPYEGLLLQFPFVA

[2] = target: T1, cystine/glutamate transporter; assay: Screen of unlabeled compounds for competition with 3H-L-ASU uptake (Example 3); assay type: cell-based; set-up: endogenous in cells; conditions: read-out: inhibition of ^3H-L-ASU uptake
[3] = target: T1, cystine/glutamate transporter; assay: 3H-L-Asu uptake in EL4 cells with or without DEM and with transporter inhibitors (Example 1); assay type: cell-based; set-up: endogenous in cells; host or cells: EL4 mouse lymphoma cells, with or without diethylmaleate (DEM) treatment
Experimental: Mouse lymphoma cells (EL4) were cultured with or without 100 μM diethylmaleate for 24 hours, washed in phosphate buffered saline (PBS) divided into aliquots of 5×10^6 cells and incubated with [^3H]-L-2-aminosuberic acid (^3H-L-Asu) without or with inhibitors of the cystine/glutamate transporter for 15 minutes. Cells were then washed 3 times and collected in a 1 ml volume of 1M HCl and transferred to a scintillation vial. 12 ml of Ready Gel scintillation fluid was added to each sample and cell uptake was determined by scintillation counting using a Perkin Elmer Tri-Carb Liquid Scintillation Analyzer.

[4] = target: T1, cystine/glutamate transporter; conditions: read-out: IC50 for inhibition of ^3H-L-GLU uptake; DEM treated EL4 cells; separate set of experiments
[5] = target: T1, cystine/glutamate transporter; assay: Uptake of labeled compounds in DEM treated EL4 cells with or without SSZ (Example 2); assay type: cell-based; set-up: endogenous in cells; host or cells: EL4 mouse lymphoma cells, with or without diethylmaleate (DEM) treatment; conditions: for inhibition of uptake by SSZ: 500 μM SSZ; for Uptake relative to ^3H-GLU: 0.33 μCi; for SSZ inhibition (%): uptake of the labeled compound with 500 μM SSZ
Experimental: 5×10^6 DEM treated EL4 cells were incubated with 0.33 μCi of either [^3H]-L-ASU, [^3H]-L-GLU or [^35S]-L-Cystine (with or without 500 μM SSZ) for 15 minutes before being washed three times in PBS and uptake was analyzed via liquid scintillation counting.

[6] = tested on: EL4 xenograft tumor tissue slices; assay: Ex vivo uptake in EL4 xenograft tumor tissue slices (Example 5); assay type: cell-based, mouse; conditions: 0.33 μCi, 30 minutes, agents matched for specific activity and radioactive dose
Experimental: We compared uptake of ^3H-ASU in tumor tissue ex vivo with uptake of ^3H-FDG, a tritiated form of the common ^18F-FDG imaging agent. the two agents were matched for specific activity and radioactive dose. 0.33 μCi of agent was incubated with equivalent aliquots of EL4 xenograft tumor tissue slices for 30 minutes (tumors processed with three passes on a McIlwain Tissue chopper, at 500 um steps, and washed with fresh buffer). Slices where washed three times, lysed with 1M HCl and evaluated by scintillation counting.

[7] = unlabeled competitor at high concentration (2.5 mM)

## N[C@H](CCCCCC(=O)O)C(=O)O [D-ASU]
[1]
  IC50: 36.2 µM
[2]
  inhibition at 2500 µM: > 90%

## N[C@H](CCC[C@H](N)C(=O)O)C(=O)O [DiAPA, diaminopimelic acid]
[2]; [7]
  inhibition at 2500 µM: < 45%

## N[C@@H](CCCC(=O)O)C(=O)O [L-AAA, L-aminoadipic acid]
[1]
  IC50: 23.9 µM
[2]; [7]
  inhibition at 2500 µM: > 90%

## N[C@@H](CCCCCC(=O)O)C(=O)O [L-ASU, L-aminosuberic acid]
[1]
  IC50: 2.9 µM
[2]
  inhibition at 2500 µM: > 90%
[3]; EL4, read-out: inhibition of ^3H-L-Asu uptake
  inhibition at 2500 µM: > 95%

## N[C@@H](CCC(=O)O)C(=O)O [L-GLU, L-glutamate]
[4]
  IC50: 4.7 µM

## [3H]C(CCC(=O)O)C([3H])C[C@H](N)C(=O)O (stereo partly drawn) [^3H-Asu, (S)-2-amino 4,5-^3H-suberic acid]
[5]
  inhibition of uptake by SSZ: almost completely inhibited
[5]; 15 minutes
  Uptake relative to ^3H-GLU: 447.0 (±22.1)
  uptake efficiency relative to L-GLU uptake: approximately 4.5 times
  SSZ inhibition (%): 95.8 (±0.17) %
[6]
  more uptake than ^3H-FDG: 70%
[3]; EL4 cells, 100 μM diethylmaleate (DEM) 24 hours vs without, 15 minutes incubation
  ^3H-L-Asu uptake in cells exposed to oxidative stress: increased

## N[C@@H](CSSC[C@H](N)C(=O)O)C(=O)O [^35S-Cystine, [^35S]-L-Cystine]
[5]
  inhibition of uptake by SSZ: approximately ⅔
[5]; 15 minutes
  Uptake relative to ^3H-GLU: 168.8 (±2.0)
  SSZ inhibition (%): 68.7 (±1.76) %

## O=C(O)CCCCCCC(=O)O [suberic acid]
[2]; [7]
  inhibition at 2500 µM: < 45%

## O=C(O)c1cc(/N=N/c2ccc(S(=O)(=O)Nc3ccccn3)cc2)ccc1O [sulfasalazine]
[3]; inhibitor 500 μM, EL4 cells, 15 minutes
  inhibition at 500 µM: > 95%

## N[C@@H](CCC(=O)NCC(=O)O)C(=O)O [γ-glutamyl-glycine]
[2]; [7]
  inhibition at 2500 µM: < 45%

Reference: patent US8784774B2, “Labeled molecular imaging agents and methods of use” (General Electric Company, priority 2011, dated 2014)
